We go through 17 compounds from patent US6960597B2, “Aza-bridged-bicyclic amino acid derivatives as α4 integrin antagonists” (Orth-McNeil Pharmaceutical, Inc., priority 2000, dated 2005).

For one assay, the target named is T1, α4β1 integrin receptor (Homo sapiens, UniProt P05556+P13612).
T1 construct: Ramos Cell Adhesion Assay (α4β1 Mediated Adhesion/VCAM-1); endogenous in cells; host or cells: Ramos cells
Kind of assay: Ramos Cell Adhesion Assay (α4β1 Mediated Adhesion/VCAM-1). In kind it is cell-based. In a few lines: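 Plates coated overnight at 4° C with recombinant hVCAM-1 (4.0 μg/mL, pH 9.0), then blocked with PBS/1% BSA. Ramos cells labelled with 5 μM Calcein AM adhered 1 h at room temperature with compound; after washing, cells were lysed in SDS and fluorescence read at 485/530 nm.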

Another assay addresses T2, human α4β7 (Homo sapiens, UniProt P13612+P26010).
T2 construct: expressed in transfected cells
T2 sequence (P13612 34-1032): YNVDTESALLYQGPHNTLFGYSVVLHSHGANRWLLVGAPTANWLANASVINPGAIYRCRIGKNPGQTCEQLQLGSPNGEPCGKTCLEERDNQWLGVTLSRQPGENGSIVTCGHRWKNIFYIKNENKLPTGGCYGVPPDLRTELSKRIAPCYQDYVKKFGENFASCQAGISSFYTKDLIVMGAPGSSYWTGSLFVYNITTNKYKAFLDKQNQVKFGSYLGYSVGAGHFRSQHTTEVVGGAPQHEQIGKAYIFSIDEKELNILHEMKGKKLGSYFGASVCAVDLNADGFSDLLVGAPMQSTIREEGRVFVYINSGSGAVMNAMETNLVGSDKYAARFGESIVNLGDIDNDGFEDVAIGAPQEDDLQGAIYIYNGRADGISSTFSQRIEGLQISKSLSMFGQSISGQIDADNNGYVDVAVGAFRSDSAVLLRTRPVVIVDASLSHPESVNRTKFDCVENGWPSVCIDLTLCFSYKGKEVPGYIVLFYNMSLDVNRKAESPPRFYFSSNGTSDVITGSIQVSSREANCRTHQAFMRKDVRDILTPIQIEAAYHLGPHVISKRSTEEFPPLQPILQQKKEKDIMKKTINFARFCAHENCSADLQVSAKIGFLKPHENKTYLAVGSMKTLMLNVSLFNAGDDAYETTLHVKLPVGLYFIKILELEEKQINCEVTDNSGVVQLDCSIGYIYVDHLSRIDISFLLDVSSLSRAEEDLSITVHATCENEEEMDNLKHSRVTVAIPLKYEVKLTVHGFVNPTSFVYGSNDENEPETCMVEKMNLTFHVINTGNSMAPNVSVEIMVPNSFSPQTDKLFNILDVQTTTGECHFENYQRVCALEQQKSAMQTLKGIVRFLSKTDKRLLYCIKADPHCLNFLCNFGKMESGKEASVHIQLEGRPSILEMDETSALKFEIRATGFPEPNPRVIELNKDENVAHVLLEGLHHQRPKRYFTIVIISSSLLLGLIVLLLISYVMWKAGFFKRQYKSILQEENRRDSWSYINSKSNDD
T2 sequence (P26010 20-798): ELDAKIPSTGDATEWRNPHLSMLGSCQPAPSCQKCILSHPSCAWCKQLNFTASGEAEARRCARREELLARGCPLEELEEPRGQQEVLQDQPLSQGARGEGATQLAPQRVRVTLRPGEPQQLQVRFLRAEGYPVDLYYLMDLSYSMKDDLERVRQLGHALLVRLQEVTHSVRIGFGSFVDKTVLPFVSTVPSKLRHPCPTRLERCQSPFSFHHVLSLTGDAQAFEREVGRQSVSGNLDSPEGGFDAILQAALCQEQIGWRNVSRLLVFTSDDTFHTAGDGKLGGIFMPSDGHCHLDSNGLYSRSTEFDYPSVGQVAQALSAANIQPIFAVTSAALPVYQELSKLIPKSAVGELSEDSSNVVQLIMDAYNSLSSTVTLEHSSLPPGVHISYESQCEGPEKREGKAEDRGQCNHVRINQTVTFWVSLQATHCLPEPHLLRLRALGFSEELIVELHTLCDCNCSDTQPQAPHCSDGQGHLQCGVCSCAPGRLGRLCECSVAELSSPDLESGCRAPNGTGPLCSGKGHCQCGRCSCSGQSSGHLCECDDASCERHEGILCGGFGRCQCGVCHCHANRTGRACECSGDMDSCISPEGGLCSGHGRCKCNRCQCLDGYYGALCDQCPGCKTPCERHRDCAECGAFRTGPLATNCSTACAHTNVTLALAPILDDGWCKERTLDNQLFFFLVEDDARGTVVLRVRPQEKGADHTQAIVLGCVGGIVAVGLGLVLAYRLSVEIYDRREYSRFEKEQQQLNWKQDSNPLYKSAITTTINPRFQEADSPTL
Briefly: α4β7-K562 Cell Adhesion Assay (α4β7 Mediated Adhesion/VCAM-1). Type of assay: cell-based. In a few lines:
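K562 cells stably expressing human α4β7, labelled with 5 μM Calcein AM, adhered for 1 h at room temperature to plates coated with recombinant hVCAM-1 (4.0 μg/mL) in the presence of compound. After washing, cells were lysed in Tris/SDS. Bound cells were read by fluorescence at 485/530 nm.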

Setting [1] is: Table III, μM, read-out: Inhibition of Binding of Ramos Cells to Immobilized VCAM-1 IC50.
The mark [2] stands for this setting: Table IV, μM, read-out: Inhibition of Binding of K562 Cells to Immobilized VCAM-1 IC50.
[3] abbreviates: Table III, read-out: Inhibition of Binding of Ramos Cells to Immobilized VCAM-1 IC50.
The mark [4] stands for this setting: Table IV, read-out: Inhibition of Binding of K562 Cells to Immobilized VCAM-1 IC50.

Where two headings read alike, the source gives them in different places. Where only a bound is given, the exact number is not on record here.

T1 sequence (P05556 21-798, one chain of several): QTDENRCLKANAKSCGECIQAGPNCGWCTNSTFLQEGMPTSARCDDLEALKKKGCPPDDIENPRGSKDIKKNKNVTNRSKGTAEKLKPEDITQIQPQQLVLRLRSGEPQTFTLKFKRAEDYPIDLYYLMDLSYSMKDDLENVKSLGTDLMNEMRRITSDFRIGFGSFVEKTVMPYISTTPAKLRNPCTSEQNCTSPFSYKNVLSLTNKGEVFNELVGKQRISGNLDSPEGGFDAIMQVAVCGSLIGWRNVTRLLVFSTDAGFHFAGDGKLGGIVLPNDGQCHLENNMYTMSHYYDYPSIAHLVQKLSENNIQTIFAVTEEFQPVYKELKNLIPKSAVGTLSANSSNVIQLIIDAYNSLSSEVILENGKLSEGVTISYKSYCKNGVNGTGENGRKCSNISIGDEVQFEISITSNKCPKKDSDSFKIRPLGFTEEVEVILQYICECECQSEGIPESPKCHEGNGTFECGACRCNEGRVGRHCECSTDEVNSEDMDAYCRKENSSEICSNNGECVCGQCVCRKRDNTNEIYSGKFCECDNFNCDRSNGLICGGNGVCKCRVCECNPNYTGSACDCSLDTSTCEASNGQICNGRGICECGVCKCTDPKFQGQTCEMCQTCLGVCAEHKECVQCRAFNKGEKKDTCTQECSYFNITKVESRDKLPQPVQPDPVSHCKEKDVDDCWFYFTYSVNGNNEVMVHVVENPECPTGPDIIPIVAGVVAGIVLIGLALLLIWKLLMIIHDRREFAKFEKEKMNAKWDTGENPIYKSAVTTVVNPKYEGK

As for `Cc1ccc(S(=O)(=O)N2C3CCC(CC3)C2C(=O)N[C@@H](Cc2cccc(NC(=O)c3c(F)cccc3F)c2)C(=O)O)cc1` (stereo partly drawn) [Cpd 35, 3-[(2,6-difluorobenzoyl)amino]-N-[[2-[(4-methylphenyl)sulfonyl]-2-azabicyclo[2.2.2]oct-3-yl]carbonyl]-L-phenylalanine], the IC50 on α4β1 integrin receptor (setting [1]) is more than 5 µM; at human α4β7 (setting [2]) it was more than 10 µM.

As to `COc1cccc(OC)c1C(=O)Nc1cccc(C[C@H](NC(=O)C2C3CCC(CC3)N2S(=O)(=O)c2ccc(C)cc2)C(=O)O)c1` (some centres unmarked) [Cpd 36, 3-[(2,6-dimethoxybenzoyl)amino]-N-[[2-[(4-methylphenyl)sulfonyl]-2-azabicyclo[2.2.2]oct-3-yl]carbonyl]phenylalanine], the IC50 is more than 5 µM on α4β1 integrin receptor (setting [1]) and more than 10 µM on human α4β7 (setting [2]).

Turning to `Cc1ccc(S(=O)(=O)N2C3CCC(CC3)C2C(=O)N[C@@H](Cc2cccc(NC(=O)c3c(Cl)cccc3Cl)c2)C(=O)O)cc1` (some centres unmarked) [Cpd 37, 3-[(2,6-dichlorobenzoyl)amino]-N-[[2-[(4-methylphenyl)sulfonyl]-2-azabicyclo[2.2.2]oct-3-yl]carbonyl]phenylalanine], the IC50 is more than 5 µM on α4β1 integrin receptor (setting [1]) and more than 10 µM on human α4β7 (setting [2]).

Consider `CN(C(=O)C1C2CCC(CC2)N1S(=O)(=O)c1ccccc1)[C@@H](Cc1ccc(OCc2c(Cl)cccc2Cl)cc1)C(=O)O` (some centres unmarked) [Cpd 38, O-[(2,6-dichlorophenyl)methyl]-methyl-N-[[2-(phenylsulfonyl)-2-azabicyclo[2.2.2]oct-3-yl]carbonyl]tyrosine], for which the values for the concentration for half-maximal inhibition (IC50) at α4β1 integrin receptor (setting [1]) and on human α4β7 (setting [2]) were more than 5 µM and more than 10 µM, respectively.

With `CN(C(=O)[C@H]1C2CCC(CC2)N1S(=O)(=O)c1ccccc1)[C@@H](Cc1ccc(NC(=O)c2c(Cl)cccc2Cl)cc1)C(=O)O` [Cpd 39, 4-[(2,6-dichlorobenzoyl)amino]-N-methyl-N-[[(3R)-2-(phenylsulfonyl)-2-azabicyclo[2.2.2]oct-3-yl]carbonyl]-L-phenylalanine], the values for the IC50 on α4β1 integrin receptor (setting [1]) and at human α4β7 (setting [2]) were more than 5 µM and more than 10 µM, respectively.

Turning to `O=C(N[C@@H](Cc1ccc(OCc2c(Cl)cccc2Cl)cc1)C(=O)O)C1C2C=CC(CC2)N1S(=O)(=O)c1ccccc1` (stereo partly drawn) [Cpd 40, O-[(2,6-dichlorophenyl)methyl]-N-[[2-(phenylsulfonyl)-2-azabicyclo[2.2.2]oct-5-en-3-yl]carbonyl]-L-tyrosine], the IC50 on α4β1 integrin receptor (setting [3]) is 0.293 µM; at human α4β7 (setting [4]) it was 2.51 µM.

With `O=C(O)[C@H](Cc1ccc(OCc2c(Cl)cccc2Cl)cc1)NC(=O)[C@H]1C2CCC(CC2)N1S(=O)(=O)c1ccccc1` [Cpd 41, O-[(2,6-dichlorophenyl)methyl]-N-[[(3R)-2-(phenylsulfonyl)-2-azabicyclo[2.2.2]oct-3-yl]carbonyl]-L-tyrosine], the IC50 at α4β1 integrin receptor (setting [1]) was more than 5 µM; at human α4β7 (setting [2]), more than 10 µM.

Regarding `O=C(Nc1ccc(C[C@H](NC(=O)C2C3C=CC(CC3)N2S(=O)(=O)c2ccccc2)C(=O)O)cc1)c1c(Cl)cccc1Cl` (stereo partly drawn) [Cpd 42, 4-[(2,6-dichlorobenzoyl)amino]-N-[[2-(phenylsulfonyl)-2-azabicyclo[2.2.2]oct-5-en-3-yl]carbonyl]-L-phenylalanine], the figures for the IC50 at α4β1 integrin receptor (setting [3]) and on human α4β7 (setting [4]) were 0.022 µM and 0.279 µM, respectively.

As for `O=C(Nc1ccc(C[C@H](NC(=O)C2C3CCC(CC3)N2S(=O)(=O)c2ccccc2)C(=O)O)cc1)c1c(F)cc(F)cc1F` (stereo partly drawn) [Cpd 43, 4-[(2,4,6-trifluorobenzoyl)amino]-N-[[2-(phenylsulfonyl)-2-azabicyclo[2.2.2]oct-3-yl]carbonyl]-L-phenylalanine], the figures for the IC50 on α4β1 integrin receptor (setting [3]) and at human α4β7 (setting [4]) were 0.103 µM and 0.442 µM, respectively.

With `CC(C)(C)Oc1ccc(C[C@H](NC(=O)C2C3CCC(CC3)N2S(=O)(=O)c2ccccc2)C(=O)O)cc1` (stereo partly drawn) [Cpd 45, O-(1,1-dimethylethyl)-N-[[2-(phenylsulfonyl)-2-azabicyclo[2.2.2]oct-3-yl]carbonyl]-L-tyrosine], the IC50 was 3.17 µM on α4β1 integrin receptor (setting [3]) and more than 10 µM at human α4β7 (setting [2]).

With `O=C(N[C@@H](CCc1ccccc1)C(=O)O)C1C2CCC(CC2)N1S(=O)(=O)c1ccccc1` (stereo partly drawn) [Cpd 46, α(S)-[[[2-(phenylsulfonyl)-2-azabicyclo[2.2.2]oct-3-yl]carbonyl]amino]-benzenebutanoic acid], the IC50 on α4β1 integrin receptor (setting [1]) was more than 5 µM; at human α4β7 (setting [2]), more than 10 µM.

As for `O=C(O)[C@H](Cc1ccc(N2C(=O)c3ccccc3C2=O)cc1)NC(=O)[C@@H]1C2CCC(CC2)N1S(=O)(=O)c1ccccc1` [Cpd 47a, 4-(1,3-dihydro-1,3-dioxo-2H-isoindol-2-yl)-N-[[(3S)-2-(phenylsulfonyl)-2-azabicyclo[2.2.2]oct-3-yl]carbonyl]-L-phenylalanine], the IC50 at α4β1 integrin receptor (Table I, racemic mixtures and resolved (S,S) and (R,S) diastereomers, read-out: Antagonist IC50 Activity α4β1) was 0.026 µM; on α4β1 integrin receptor (setting [3]), 0.026 µM; on human α4β7 (Table I, racemic mixtures and resolved (S,S) and (R,S) diastereomers, read-out: Antagonist IC50 Activity α4β7), 0.102 µM.

Turning to `O=C(O)c1ccccc1C(=O)Nc1ccc(C[C@H](NC(=O)[C@@H]2C3CCC(CC3)N2S(=O)(=O)c2ccccc2)C(=O)O)cc1` [Cpd 48, 4-[(2-carboxybenzoyl)amino]-N-[[(3S)-2-(phenylsulfonyl)-2-azabicyclo[2.2.2]oct-3-yl]carbonyl]-L-phenylalanine], the IC50 at α4β1 integrin receptor (setting [1]) was more than 5 µM; at human α4β7 (setting [2]), more than 10 µM.

As for `Cc1ccc(C)n1-c1ccc(C[C@H](NC(=O)C2C3CCC(CC3)N2S(=O)(=O)c2ccccc2)C(=O)O)cc1` (stereo partly drawn) [Cpd 49, 4-(2,5-dimethyl-1H-pyrrol-1-yl)-N-[[2-(phenylsulfonyl)-2-azabicyclo[2.2.2]oct-3-yl]carbonyl]-L-phenylalanine], the IC50 on α4β1 integrin receptor (setting [1]) is more than 5 µM; on human α4β7 (setting [2]), more than 10 µM.

As for `O=C(Nc1ccc(C[C@H](NC(=O)C2C3CCC(CC3)N2S(=O)(=O)c2ccccc2)C(=O)O)cc1)c1ccncc1` (stereo partly drawn) [Cpd 50, 4-[(4-pyridinylcarbonyl)amino]-N-[[2-(phenylsulfonyl)-2-azabicyclo[2.2.2]oct-3-yl]carbonyl]-L-phenylalanine], the IC50 is 0.055 µM on α4β1 integrin receptor (setting [3]) and 0.81 µM on human α4β7 (setting [4]).

Turning to `O=C(Nc1ccc(C[C@H](NC(=O)[C@@H]2C3CCC(CC3)N2S(=O)(=O)c2ccccc2)C(=O)O)cc1)c1ccncc1` [Cpd 50a, 4-[(4-pyridinylcarbonyl)amino]-N-[[(3S)-2-(phenylsulfonyl)-2-azabicyclo[2.2.2]oct-3-yl]carbonyl]-L-phenylalanine], the values for the IC50 at α4β1 integrin receptor (setting [3]) and at human α4β7 (setting [4]) were 0.054 µM and 0.223 µM, respectively.

In the case of `O=C(N[C@@H](Cc1ccc(NS(=O)(=O)c2c(Cl)cccc2Cl)cc1)C(=O)O)C1C2CCC(CC2)N1S(=O)(=O)c1ccccc1` (stereo partly drawn) [Cpd 51, 4-[[(2,6-dichlorophenyl)sulfonyl]amino]-N-[[2-(phenylsulfonyl)-2-azabicyclo[2.2.2]oct-3-yl]carbonyl]-L-phenylalanine], the IC50 on α4β1 integrin receptor (setting [3]) is 0.784 µM; on human α4β7 (setting [2]), more than 5 µM.
